The NIST ThermoML archive (doi:10.1016/j.jct.2014.02.003)
± gives the expanded uncertainty stated by the source. Values belong to the compound of their own block, whether it stands above or below them.

Assay: molar enthalpy of vaporization or sublimation
Details: Crystal, Knudsen effusion method coupled with mass spectrometer, from logarithm of peak intensity

- molar enthalpy (471.15 K): 47.8 ± 0.43 kcal/mol
SMILES: N[C@@H](Cc1ccc(O)cc1)C(=O)O [3-(p-hydroxyphenyl)-L-alanine]

- molar enthalpy (418.15 K): 37.8 ± 0.478 kcal/mol
SMILES: N[C@@H](Cc1ccccc1)C(=O)O [L-phenylalanine]

- molar enthalpy (450.15 K): 44.1 ± 0.55 kcal/mol
SMILES: N[C@@H](Cc1c[nH]c2ccccc12)C(=O)O [L-tryptophan]

- molar enthalpy (308.21 K): 21.7 ± 0.454 kcal/mol
SMILES: O=C(O)c1ccccc1 [benzoic acid]
